Data published in patent US11230547B2, “Purine inhibitors of human phosphatidylinositol 3-kinase delta” (Merck Sharp & Dohme Corp., priority 2017, dated 2022).

What was measured:
PI3Kalpha = PI3Kalpha (Homo sapiens (Human), UniProt P42336); assay: HTRF PI3K biochemical assay, alpha isoform (selectivity versus delta); details: relative ratio PI3K-alpha IC50 value / PI3K-delta IC50 value
Description: (§1) HTRF PI3K Biochemical Assay to Measure Intrinsic Potency of Compound Inhibitors
(§2) The PI3-Kinase biochemical assays were developed to measure the intrinsic potency and compound dependent inhibition of the alpha, beta, delta, and gamma PI3K isoform enzymes. This assay was developed and further optimized from a kit produced by Upstate (Millipore catalog #33-047) (Millipore Sigma, Billerica Mass., USA) and has been configured for high throughput screening (HTS) and structure-activity relationship (SAR) screening. Briefly, this procedure exploits the exquisite specificity and high affinity binding of […] phosphatidyl(3,4,5)triphosphate (PIP3) to the GRP1 pleckstrin homology (PH) domain to generate the signal. In the absence of PIP3, an HTRF (Homogeneous Time-Resolved Fluorescence energy transfer) complex is formed consisting of europium (u)-labeled anti-GST, GST tagged GRP1-PH domain, biotin-PIP3 (biotinylated-PIP3) and streptavidin conjugated APC (Allophycocyanin). The native PIP3 produced by PI3-Kinase activity disrupts in a competitive manner the biotin-PIP3 from the pleckstrin homology (PH) domain, resulting in the loss of energy transfer (HTRF complex) and a decrease in the signal. The format of this assay is the same for all 4 isoforms of PI3K; the differences lie in the concentration of enzyme used to achieve robust assay window. The alpha, beta, and delta assays are run at 0.5, 1, and 0.3 nM enzymes and the gamma assay is run at 5 nM enzyme. The ATP concentration is 100 uM in the alpha, beta, and delta assays and 50 uM adenosine triphosphate (ATP) in the gamma assay. All reactions are run at 5 uM PIP2.
(§3) Compounds are serially diluted (3-fold in 100% DMSO) across a 384-well polypropylene source plated from column 3 to column 12 and column 13 to column 22, to yield 10 concentration dose response for each test compound. Columns 1, 2, 23 and 24 contain either only DMSO or pharmacological known control inhibitor. Once titrations are made, 2.5 nL of the compounds on 384 well plates are reformatted and transferred by acoustic dispense in quadruplicates to a 1536 assay plate (Greiner) to assay across all four PI3K isoform enzymes.
(§4) The PI3-Kinase biochemical assay was optimized using the HTRF kit provided by Upstate (Millipore). The assay kit contains six reagents: 1) 4× Reaction Buffer; 2) native PIP2 (substrate); 3) Stop (EDTA); 4) Detection Mix A (Streptavidin-APC); 5) Detection Mix B (Eu-labeled Anti-GST plus GST-tagged PH-domain); 6) Detection Mix C. In addition, the following items were obtained or purchased; PI3Kinase (catalog #'s alpha 14-602, beta 14-603, gamma 14-558 and delta 14-604 from Upstate Biotechnology now EMD Millipore, Mahopac, N.Y., USA), dithiothreitol (Sigma-Aldrich Corp. (St. Louis, Mo., USA) Catalog #D-5545), Adenosine-5′ triphosphate (InVitrogen (Waltham, Mass., USA), Cat#AS001A), native PIP3 (PI(3,4,5)P3, diC8, H^+, CELLSIGNALS, INC., (Columbus, Ohio, USA) Cat #907) DMSO ((Sigma-Aldrich Corp. (St. Louis, Mo., USA) Catalog #472301).
(§5) PI3Kinase Reaction Buffer is prepared by dilution the stock 1:4 with de-ionized water. DTT (DL-Dithiothreitol), phosphatidylinositol 4,5-bisphosphate (PIP2) and Biotin-PIP3 were added to 1536 assay plate at a final concentration of 5 mM, […] and 25 nM on the day of use. Enzyme addition and compound pre-incubation are initiated by the addition of 1.25 ul of PI3K (at twice its final concentration) in the 1× reaction buffer to all wells using a BioRaptr™ (Beckman Coulter, Waltham, Mass. USA). Plates are incubated at room temperature for 15 minutes. Reactions are initiated by addition of 1.25 ul of 2× substrate solution (PIP2 and ATP in 1× reaction buffer) using BioRaptr™. Plates are incubated in humidified chamber at room temperature for one hour. Reactions are quenched by addition of 0.625 uL of stop solution to all wells using the BioRaptr™. […]

PI3Kdelta = PI3Kdelta (Homo sapiens (Human), UniProt O00329); assay: HTRF PI3K biochemical assay, delta isoform; details: 0.3 nM enzyme, 100 uM ATP, 5 uM PIP2, form screened per table
Description: as §1, §2, §3, §4, §5

Chain of PI3Kalpha (P42336 whole entry, canonical isoform): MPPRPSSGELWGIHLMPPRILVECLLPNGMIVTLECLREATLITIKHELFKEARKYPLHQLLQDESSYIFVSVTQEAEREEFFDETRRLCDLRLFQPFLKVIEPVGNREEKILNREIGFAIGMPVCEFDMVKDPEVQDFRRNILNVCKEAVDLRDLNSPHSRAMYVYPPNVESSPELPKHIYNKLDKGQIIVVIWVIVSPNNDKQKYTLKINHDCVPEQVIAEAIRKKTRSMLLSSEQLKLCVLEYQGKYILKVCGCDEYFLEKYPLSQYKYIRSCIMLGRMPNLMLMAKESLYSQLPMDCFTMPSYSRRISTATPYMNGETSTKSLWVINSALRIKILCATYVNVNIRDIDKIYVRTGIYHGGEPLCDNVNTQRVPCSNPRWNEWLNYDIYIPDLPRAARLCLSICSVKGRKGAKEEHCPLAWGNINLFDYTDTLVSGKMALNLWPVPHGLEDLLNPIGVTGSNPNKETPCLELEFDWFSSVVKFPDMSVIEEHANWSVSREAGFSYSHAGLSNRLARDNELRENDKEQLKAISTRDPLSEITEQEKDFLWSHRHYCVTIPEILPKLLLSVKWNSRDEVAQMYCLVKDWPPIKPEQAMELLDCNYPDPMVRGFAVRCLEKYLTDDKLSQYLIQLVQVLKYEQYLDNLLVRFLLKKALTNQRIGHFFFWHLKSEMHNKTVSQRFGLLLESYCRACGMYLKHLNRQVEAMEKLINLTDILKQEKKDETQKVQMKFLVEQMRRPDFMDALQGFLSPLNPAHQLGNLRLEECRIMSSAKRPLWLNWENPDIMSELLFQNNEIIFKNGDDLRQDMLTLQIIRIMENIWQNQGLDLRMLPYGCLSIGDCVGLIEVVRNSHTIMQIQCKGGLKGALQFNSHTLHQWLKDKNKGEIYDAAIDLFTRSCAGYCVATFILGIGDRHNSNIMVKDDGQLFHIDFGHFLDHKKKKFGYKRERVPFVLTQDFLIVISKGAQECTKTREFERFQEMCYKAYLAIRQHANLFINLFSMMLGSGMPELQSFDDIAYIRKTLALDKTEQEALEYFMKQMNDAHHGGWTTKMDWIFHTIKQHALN
Chain of PI3Kalpha (P27986 whole entry partner, canonical isoform): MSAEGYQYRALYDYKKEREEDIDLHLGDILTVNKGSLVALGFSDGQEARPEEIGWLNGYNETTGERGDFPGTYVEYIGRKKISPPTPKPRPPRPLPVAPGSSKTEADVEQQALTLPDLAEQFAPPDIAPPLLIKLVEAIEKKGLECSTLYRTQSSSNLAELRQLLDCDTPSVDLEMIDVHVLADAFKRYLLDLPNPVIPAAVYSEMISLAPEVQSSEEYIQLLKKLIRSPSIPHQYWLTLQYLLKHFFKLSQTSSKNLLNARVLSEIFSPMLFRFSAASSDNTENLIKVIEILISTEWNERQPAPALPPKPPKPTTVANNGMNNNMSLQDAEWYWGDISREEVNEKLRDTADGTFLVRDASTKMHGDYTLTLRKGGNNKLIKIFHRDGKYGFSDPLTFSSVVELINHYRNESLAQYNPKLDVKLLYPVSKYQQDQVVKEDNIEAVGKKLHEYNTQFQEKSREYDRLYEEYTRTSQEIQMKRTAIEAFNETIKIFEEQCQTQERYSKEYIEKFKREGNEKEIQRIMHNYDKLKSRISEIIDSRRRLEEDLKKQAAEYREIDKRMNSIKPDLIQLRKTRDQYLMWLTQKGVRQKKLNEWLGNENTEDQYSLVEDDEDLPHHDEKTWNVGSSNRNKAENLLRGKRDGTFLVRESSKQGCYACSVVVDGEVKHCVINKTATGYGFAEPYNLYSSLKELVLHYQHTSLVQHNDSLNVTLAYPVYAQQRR
Chain of PI3Kdelta (O00329 whole entry, canonical isoform): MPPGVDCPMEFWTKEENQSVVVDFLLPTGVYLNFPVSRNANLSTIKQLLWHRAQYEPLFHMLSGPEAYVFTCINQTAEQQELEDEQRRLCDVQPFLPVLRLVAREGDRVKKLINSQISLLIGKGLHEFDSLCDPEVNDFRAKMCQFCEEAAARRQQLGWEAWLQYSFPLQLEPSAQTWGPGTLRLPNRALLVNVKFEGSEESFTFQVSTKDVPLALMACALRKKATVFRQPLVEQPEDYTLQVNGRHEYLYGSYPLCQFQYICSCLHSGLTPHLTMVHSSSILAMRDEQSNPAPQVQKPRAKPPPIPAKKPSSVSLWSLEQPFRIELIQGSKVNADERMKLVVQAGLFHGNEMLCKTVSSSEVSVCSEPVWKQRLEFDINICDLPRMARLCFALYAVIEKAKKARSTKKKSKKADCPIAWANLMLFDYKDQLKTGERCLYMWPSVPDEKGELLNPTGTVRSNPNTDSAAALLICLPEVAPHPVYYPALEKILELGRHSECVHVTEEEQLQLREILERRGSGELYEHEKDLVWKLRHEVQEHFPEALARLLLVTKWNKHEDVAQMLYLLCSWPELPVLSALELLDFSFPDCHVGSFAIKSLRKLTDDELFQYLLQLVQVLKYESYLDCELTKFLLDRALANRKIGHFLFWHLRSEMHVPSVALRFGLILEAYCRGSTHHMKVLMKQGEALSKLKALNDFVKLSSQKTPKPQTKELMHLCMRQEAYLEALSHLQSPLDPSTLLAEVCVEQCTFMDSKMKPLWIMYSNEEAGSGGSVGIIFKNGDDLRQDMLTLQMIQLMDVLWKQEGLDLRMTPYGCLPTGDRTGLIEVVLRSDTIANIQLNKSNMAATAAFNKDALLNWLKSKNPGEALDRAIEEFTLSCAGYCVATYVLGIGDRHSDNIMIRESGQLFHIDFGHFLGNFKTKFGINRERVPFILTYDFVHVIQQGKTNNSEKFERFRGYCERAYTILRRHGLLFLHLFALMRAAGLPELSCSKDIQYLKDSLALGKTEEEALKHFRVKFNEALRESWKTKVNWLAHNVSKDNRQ
Chain of PI3Kdelta (P27986 whole entry partner, canonical isoform): as the sequence (P27986 whole entry partner, canonical isoform) above

Compound | Selectivity versus PI3Kalpha (PI3Kalpha) | IC50 (PI3Kdelta) [nM]
N#Cc1cnc(-c2cnn3ccccc23)nc1N1C[C@@H]2CC1CN2c1cccc(F)c1 (stereo in doubt) [Compound 1-2, 4-[(1R,4S)-5-(3-fluorophenyl)-2,5-diazabicyclo[2.2.1]hept-2-yl]-2-pyrazolo[1,5-a]pyridin-3-ylpyrimidine-5-carbonitrile] | >10 | 51
N#Cc1cnc(N2Cc3cn[nH]c3C2)nc1N1CC2C[C@H]1CN2c1cccc(F)c1 (stereo in doubt) [Compound 1-3, 2-(4,6-dihydropyrrolo[3,4-c]pyrazol-5(1H)-yl)-4-[(1S,4R)-5-(3-fluorophenyl)-2,5-diazabicyclo[2.2.1]hept-2-yl]pyrimidine-5-carbonitrile] | >10 | 86
Cn1cc(-c2ncc(C#N)c(N3CC4C[C@H]3CN4c3ccc(C(F)F)nc3)n2)cn1 (stereo in doubt) [Compound 1-4, 4-{(1S,4R)-5-[6-(difluoromethyl)pyridin-3-yl]-2,5-diazabicyclo[2.2.1]hept-2-yl}-2-(1-methyl-1H-pyrazol-4-yl)pyrimidine-5-carbonitrile] | >10 | 540
Cn1cc(-c2ncc(C#N)c(N3CC4C[C@H]3CN4c3cccnc3)n2)cn1 (stereo in doubt) [Compound 1-6, 2-(1-methyl-1H-pyrazol-4-yl)-4-[(1S,4R)-5-pyridin-3-yl-2,5-diazabicyclo[2.2.1]hept-2-yl]pyrimidine-5-carbonitrile] | >10 | 110
Cn1cc(-c2ncc(C#N)c(N3CC4C[C@H]3CN4c3cccc(-n4cccc4)c3)n2)cn1 (stereo in doubt) [Compound 1-9, 2-(1-methyl-1H-pyrazol-4-yl)-4-{(1S,4R)-5-[3-(1H-pyrrol-1-yl)phenyl]-2,5-diazabicyclo[2.2.1]hept-2-yl}pyrimidine-5-carbonitrile] | >10 | 90
Cn1cc(-c2ncc(C#N)c(N3CC4C[C@H]3CN4c3cccc(C4CC4)c3)n2)cn1 (stereo in doubt) [Compound 1-11, 4-[(1S,4R)-5-(3-cyclopropylphenyl)-2,5-diazabicyclo[2.2.1]hept-2-yl]-2-(1-methyl-1H-pyrazol-4-yl)pyrimidine-5-carbonitrile] | >10 | 130
N#Cc1cnc(-c2ccnc3[nH]ccc23)nc1N1C[C@@H]2CC1CN2c1cccc(F)c1 (stereo in doubt) [Compound 1-17, 4-[(1R,4S)-5-(3-fluorophenyl)-2,5-diazabicyclo[2.2.1]hept-2-yl]-2-(1H-pyrrolo[2,3-b]pyridin-4-yl)pyrimidine-5-carbonitrile] | >10 | 56
N#Cc1cnc(-c2cnc3[nH]ccc3c2)nc1N1C[C@@H]2CC1CN2c1cccc(F)c1 (stereo in doubt) [Compound 1-18, 4-[(1R,4S)-5-(3-fluorophenyl)-2,5-diazabicyclo[2.2.1]hept-2-yl]-2-(1H-pyrrolo[2,3-b]pyridin-5-yl)pyrimidine-5-carbonitrile] | 8 | 920
Cc1cncc(-c2ncc(C#N)c(N3C[C@@H]4CC3CN4c3cccc(F)c3)n2)c1 (stereo in doubt) [Compound 1-19, 4-[(1R,4S)-5-(3-fluorophenyl)-2,5-diazabicyclo[2.2.1]hept-2-yl]-2-(5-methylpyridin-3-yl)pyrimidine-5-carbonitrile] | >10 | 290
N#Cc1cnc(-c2cccc3[nH]ncc23)nc1N1C[C@@H]2CC1CN2c1cccc(F)c1 (stereo in doubt) [Compound 1-20, 4-[(1R,4S)-5-(3-fluorophenyl)-2,5-diazabicyclo[2.2.1]hept-2-yl]-2-(1H-indazol-4-yl)pyrimidine-5-carbonitrile] | 9 | 200

The remaining lines, values ahead:

Selectivity versus PI3Kalpha (PI3Kalpha) | IC50 (PI3Kdelta) [nM] | Compound
>10 | 69 | Cn1cc(-c2ncc(C#N)c(N3CC4C[C@H]3CN4c3cccc(C#N)c3)n2)cn1 (stereo in doubt) [Compound 1-1, 4-[(1S,4R)-5-(3-cyanophenyl)-2,5-diazabicyclo[2.2.1]hept-2-yl]-2-(1-methyl-1H-pyrazol-4-yl)pyrimidine-5-carbonitrile]
>10 | 220 | Cn1cc(-c2ncc(C#N)c(N3CC4C[C@H]3CN4c3cccc(C(C)(C)O)c3)n2)cn1 (stereo in doubt) [Compound 1-5, 4-{(1S,4R)-5-[3-(1-hydroxy-1-methylethyl)phenyl]-2,5-diazabicyclo[2.2.1]hept-2-yl}-2-(1-methyl-1H-pyrazol-4-yl)pyrimidine-5-carbonitrile]
>10 | 79 | Cn1cc(-c2ncc(C#N)c(N3CC4C[C@H]3CN4c3cccc(OCCF)c3)n2)cn1 (stereo in doubt) [Compound 1-8, 4-{(1S,4R)-5-[3-(2-fluoroethoxy)phenyl]-2,5-diazabicyclo[2.2.1]hept-2-yl}-2-(1-methyl-1H-pyrazol-4-yl)pyrimidine-5-carbonitrile]
>10 | – | Cn1cc(-c2ncc(C#N)c(N3CC4C[C@H]3CN4c3cccc([N+](=O)[O-])c3)n2)cn1 (stereo in doubt) [Compound 1-10, 2-(1-methyl-1H-pyrazol-4-yl)-4-[(1S,4R)-5-(3-nitrophenyl)-2,5-diazabicyclo[2.2.1]hept-2-yl]pyrimidine-5-carbonitrile]
>10 | 410 | Cn1cc(-c2ncc(C#N)c(N3CC4C[C@H]3CN4c3cccc(C4(C)CC4)c3)n2)cn1 (stereo in doubt) [Compound 1-12, 4-{(1S,4R)-5-[3-(1-methylcyclopropyl)phenyl]-2,5-diazabicyclo[2.2.1]hept-2-yl}-2-(1-methyl-1H-pyrazol-4-yl)pyrimidine-5-carbonitrile]
>10 | 97 | CNC(=O)c1cccc(N2C[C@@H]3CC2CN3c2nc(-c3cnn(C)c3)ncc2C#N)c1 (stereo in doubt) [Compound 1-13, 3-{(1R,4S)-5-[5-cyano-2-(1-methyl-1H-pyrazol-4-yl)pyrimidin-4-yl]-2,5-diazabicyclo[2.2.1]hept-2-yl}-N-methylbenzamide]
>10 | 71 | COc1cccc(N2C[C@@H]3CC2CN3c2nc(-c3cnn(C)c3)ncc2C#N)c1 (stereo in doubt) [Compound 1-14, 4-[(1S,4R)-5-(3-methoxyphenyl)-2,5-diazabicyclo[2.2.1]hept-2-yl]-2-(1-methyl-1H-pyrazol-4-yl)pyrimidine-5-carbonitrile]
>10 | 27 | Cn1cc(-c2ncc(C#N)c(N3CC4C[C@H]3CN4c3cccc(S(C)(=O)=O)c3)n2)cn1 (stereo in doubt) [Compound 1-15, 2-(1-methyl-1H-pyrazol-4-yl)-4-{(1S,4R)-5-[3-(methylsulfonyl)phenyl]-2,5-diazabicyclo[2.2.1]hept-2-yl}pyrimidine-5-carbonitrile]
– | 38 | Cn1cc(-c2ncc(C#N)c(N3C[C@H]4C[C@H]3CN4c3cccc([N+](=O)[O-])c3)n2)cn1 [Compound 1-10, 2-(1-methyl-1H-pyrazol-4-yl)-4-[(1S,4R)-5-(3-nitrophenyl)-2,5-diazabicyclo[2.2.1]hept-2-yl]pyrimidine-5-carbonitrile]
